Test results reported in ChEMBL document CHEMBL4417636, “Small molecule inhibitors of pendrin ion exchange and pharmaceutical compositions” (2017).
Activity calls are given as the source filed them. The rule behind the calls is not given here.

Assays:
Mus musculus = assay: Potentiation of 20 mg/kg, ip furosemide-induced acute diuretic action in CD1 mouse assessed as induction of metabolic alkalosis at 10 mg/kg, ip; assay type: functional, organism-based
[1] = molecular target: T1, Chloride anion exchanger (Mus musculus) (UniProt Q9WVC8); assay: Inhibition of myc-tagged mouse Slc26a3 expressed in COS7 co-expressing EYFP-HIF assessed as effect on SCN(-) gradient at 25 uM by YFP-based fluorescence quenching assay
T1 sequence (whole entry): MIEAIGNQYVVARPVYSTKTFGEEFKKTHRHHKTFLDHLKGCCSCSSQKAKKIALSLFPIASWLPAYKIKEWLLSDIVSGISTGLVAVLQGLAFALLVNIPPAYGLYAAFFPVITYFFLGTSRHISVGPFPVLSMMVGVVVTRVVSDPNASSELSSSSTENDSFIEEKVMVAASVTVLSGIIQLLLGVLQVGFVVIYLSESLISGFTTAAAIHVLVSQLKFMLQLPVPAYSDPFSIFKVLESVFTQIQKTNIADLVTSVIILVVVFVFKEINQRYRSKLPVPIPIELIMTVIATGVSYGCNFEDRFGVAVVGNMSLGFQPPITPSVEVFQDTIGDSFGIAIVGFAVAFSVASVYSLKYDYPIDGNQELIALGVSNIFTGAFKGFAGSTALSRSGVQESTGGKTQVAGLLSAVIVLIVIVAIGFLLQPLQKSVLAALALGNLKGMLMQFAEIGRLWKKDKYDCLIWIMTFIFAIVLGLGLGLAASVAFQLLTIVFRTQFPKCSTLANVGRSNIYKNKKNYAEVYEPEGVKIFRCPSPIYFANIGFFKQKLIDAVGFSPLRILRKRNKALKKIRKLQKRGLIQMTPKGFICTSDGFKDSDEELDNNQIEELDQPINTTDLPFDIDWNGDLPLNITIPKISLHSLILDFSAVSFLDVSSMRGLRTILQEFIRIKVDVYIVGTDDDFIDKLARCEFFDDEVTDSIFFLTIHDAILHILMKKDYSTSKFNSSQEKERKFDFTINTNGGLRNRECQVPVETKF

[2] = molecular target: T2, Solute carrier family 12 member 2 (Homo sapiens) (UniProt P55011); assay: Inhibition of human NKCC1 expressed in COS7 co-expressing EYFP-HIF assessed as effect on I(-) gradient at 25 uM by YFP-based fluorescence quenching assay
T2 sequence (whole entry): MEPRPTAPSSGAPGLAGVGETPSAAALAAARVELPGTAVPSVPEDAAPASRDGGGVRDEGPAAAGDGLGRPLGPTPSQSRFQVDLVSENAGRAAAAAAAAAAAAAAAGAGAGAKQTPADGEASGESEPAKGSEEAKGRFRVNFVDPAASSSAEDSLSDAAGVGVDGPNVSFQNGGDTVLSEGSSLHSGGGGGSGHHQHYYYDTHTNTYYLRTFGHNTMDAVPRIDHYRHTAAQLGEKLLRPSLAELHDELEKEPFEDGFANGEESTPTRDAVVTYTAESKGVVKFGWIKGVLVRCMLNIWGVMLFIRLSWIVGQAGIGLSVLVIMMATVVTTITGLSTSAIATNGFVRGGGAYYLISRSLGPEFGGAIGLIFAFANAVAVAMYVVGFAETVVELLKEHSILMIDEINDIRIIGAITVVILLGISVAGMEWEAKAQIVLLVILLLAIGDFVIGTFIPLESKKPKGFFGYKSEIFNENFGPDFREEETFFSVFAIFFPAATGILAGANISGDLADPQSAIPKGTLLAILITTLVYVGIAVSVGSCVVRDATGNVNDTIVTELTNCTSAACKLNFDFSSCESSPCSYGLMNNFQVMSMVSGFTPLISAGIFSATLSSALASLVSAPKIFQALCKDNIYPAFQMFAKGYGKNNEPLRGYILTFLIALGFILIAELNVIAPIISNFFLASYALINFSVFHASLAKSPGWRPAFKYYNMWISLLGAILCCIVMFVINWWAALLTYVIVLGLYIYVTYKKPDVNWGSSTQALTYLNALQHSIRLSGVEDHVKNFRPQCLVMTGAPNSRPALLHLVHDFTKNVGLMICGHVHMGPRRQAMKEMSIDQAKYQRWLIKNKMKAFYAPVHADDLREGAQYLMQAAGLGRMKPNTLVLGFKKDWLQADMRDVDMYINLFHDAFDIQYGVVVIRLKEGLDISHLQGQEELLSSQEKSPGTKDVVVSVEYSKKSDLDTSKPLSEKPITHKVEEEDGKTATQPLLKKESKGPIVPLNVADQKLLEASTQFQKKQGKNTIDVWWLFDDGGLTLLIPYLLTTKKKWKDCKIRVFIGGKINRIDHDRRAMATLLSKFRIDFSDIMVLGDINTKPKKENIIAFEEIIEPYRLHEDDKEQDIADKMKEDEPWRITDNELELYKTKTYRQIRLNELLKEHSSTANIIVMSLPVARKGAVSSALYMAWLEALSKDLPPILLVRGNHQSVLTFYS

Pendrin (Homo sapiens) [3] = molecular target: T3, Pendrin (Homo sapiens) (UniProt O43511); assay: Inhibition of pendrin in IL13-stimulated human CFBE assessed as reduction in gluconate gradient-induced intracellular alkalization at 25 uM; assay type: cell-based
T3 sequence (whole entry): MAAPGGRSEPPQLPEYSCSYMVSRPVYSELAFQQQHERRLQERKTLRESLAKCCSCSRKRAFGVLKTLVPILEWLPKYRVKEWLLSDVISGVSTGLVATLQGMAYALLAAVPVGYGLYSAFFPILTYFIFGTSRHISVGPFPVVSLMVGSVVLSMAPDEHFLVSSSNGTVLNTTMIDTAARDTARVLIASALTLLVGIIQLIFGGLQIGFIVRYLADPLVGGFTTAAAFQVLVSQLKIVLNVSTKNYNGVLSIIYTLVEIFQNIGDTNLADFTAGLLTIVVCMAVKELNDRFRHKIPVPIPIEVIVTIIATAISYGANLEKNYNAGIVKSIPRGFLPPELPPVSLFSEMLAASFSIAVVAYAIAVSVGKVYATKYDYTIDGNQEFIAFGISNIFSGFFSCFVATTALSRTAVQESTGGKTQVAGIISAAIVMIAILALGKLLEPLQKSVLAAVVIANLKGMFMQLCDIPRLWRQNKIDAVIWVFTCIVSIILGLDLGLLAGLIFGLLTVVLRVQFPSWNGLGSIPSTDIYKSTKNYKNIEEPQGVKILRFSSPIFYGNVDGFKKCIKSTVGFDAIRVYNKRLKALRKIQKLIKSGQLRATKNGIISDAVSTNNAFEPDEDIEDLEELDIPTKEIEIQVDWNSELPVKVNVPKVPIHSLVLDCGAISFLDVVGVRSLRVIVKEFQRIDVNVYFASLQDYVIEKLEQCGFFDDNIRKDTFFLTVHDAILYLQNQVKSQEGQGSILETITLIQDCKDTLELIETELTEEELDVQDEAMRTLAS

Pendrin (Homo sapiens) [4] = molecular target: T3, Pendrin (Homo sapiens); assay: Inhibition of human pendrin expressed in FRT cells co-expressing EYFP-HIF assessed as reduction in pendrin-mediated C17HCO3(-) exchange by measuring reduction in cytoplasmic alkalinization exchange at 2.5 uM by pH-sensitive fluorescent probe BCECF-AM based fluorescence assay relative to control; assay type: cell-based

inhibition [1] | inhibition [2] | inhibition (Pendrin (Homo sapiens) [3]) | inhibition (Pendrin (Homo sapiens) [4]) | SMILES | Activity (Mus musculus)
inactive | inactive |  |  | Cc1n[nH]c(-c2cc(S(=O)(=O)NC3CCCc4ccccc43)c(C)s2)c1C (stereo not given) | Active
 |  | Active | 50% | Cn1nc(COc2cccc(F)c2)c2c1CCN(C(=O)Nc1ccc(Cl)cc1)C2 | 
